According to US20140356452A1, “Therapeutic Uses of Tetrachlorodecaoxygen (TCDO)” (IBT USA INC., priority 2012, published 2014):

Assays:
[1] = tested on: spinal cord injury (SCI) rat model; assay: Spinal cord injury rat model: lesion volume; format: in vivo; conditions: for Percent change in Lesion volume: reduction vs Saline group (group 1), 0.5 ml/kg IV
Procedure: Animals: Female Sprague-Dawley rats (Harlan Sprague-Dawley, Indianapolis, Ind.), weighing 200-225 grams each were given free access to food and water before the experiment. The animals were anesthetized with ketamine (80 mg/kg) and xylazine (10 mg/kg). Brain temperatures were monitored using a rectal thermometer. The animals' body temperature was maintained at 37° C. by using a water jacketed heating pad. Brain temperature was monitored for 1 hour prior to injury to 6 hours following injury and was recorded at 30-minute intervals.
Experimental Groups. The spinal cord injury model utilized in the studies is described in detail (Rabchevsky et al, 2002; J. Neurosci. Res. 68:7). Young adult female Sprague-Dawley rats received a spinal cord contusion using the Precision Scientific Inc. pneumatic impactor. Female animals were used due to the paralysis associated with the injury and ease of voiding the bladder. Prior to surgery, rats were assigned to different treatment groups based on a randomized block design so that on any given surgery day all treatment groups were included. The rats were anesthetized with ketamine (80 mg/kg) and xylazine (10 mg/kg) before laminectomy was performed at the 10th thoracic vertebra (T10). The vertebral column was stabilized with angled clamps on the upper thoracic (T8) and lumber […] levels and the impactor with a tip diameter of 2 mm was delivered at approximately 50 kdynes onto the exposed, intact dura overlying the dorsal spinal cord. The impactor was immediately removed, the wound irrigated with saline and the muscle and skin openings sutured together.
Drug Administration. Compound was administered in the following paradigm: intravenous injection of saline or drug solutions 15 minutes following injury at 0.5 ml/kg (1×10^4, 5×10^4, and 10×10^4 TCDO). Drug was administered once per day starting at the indicated times and continued for 5 days. The saline control group was run in parallel with the drug-treated groups.
Histology. At the end of the study, the animals were killed and the spinal cord fixed in 4% paraformaldehyde. For analysis, 20 μm cryosections were stained for eriochrome cyanine (EC) to differentiate between white matter and cell bodies to calculate the amount of spared tissue through the lesion site. Immunocytochemical analysis was performed on the tissue. Tissue sparing was determined by computed image analysis from 10 evenly spaced sections through the injured T10 segment. The volume of necrotic tissue divided by the total cross-sectional volume is converted to a percentage and subtracted from 100%. Sections were taken for immunocytochemical analysis for macrophage infiltration
Each animal received induction of 5 i.v. injections for a total of 5×0.5 ml/kg of body weight. […]

SCI rat study: mortality = format: in vivo; conditions: 0.5 ml/kg IV once daily 5 days, 6 weeks
Source text: Mortality: There were no deaths in this study.

[2] = tested on: spinal cord injury (SCI) rat model; assay: Example 3: TCDO in the spinal cord injury rat model (lesion volume, BBB); format: in vivo
Procedure: Tetrachlorodecaoxygen (TCDO) was tested for efficacy in the spinal cord injury (SCI) rat model. In order to determine the efficacy of TCDO, rats were subjected to spinal cord injury and 6 weeks of recovery. Rats were injected intravenously with saline or TCDO solutions. Rats received 1 injection regiment: administered 15 minutes after injury. Animals were injected once daily for 5 days following the injury. Treated rats were examined after 1, 2, 3, 4, 5, and 6 weeks for drug behavioral effect. The animals were examined for changes in lesion volume (LV) and Basso, Beattie and Bresnahan (BBB) locomotor test. […] However, by 7 days, TCDO was not effective in reducing the LV or behavioral deficits.

non-healing wounds = assay: Example 4: topical TCDO versus saline in 271 patients with non-healing wounds; format: in vivo, human
Procedure: TCDO was investigated for its effects on non-healing wounds. In the study, 271 patients with non-healing wounds which included post-operative wounds, venous ulcers, arterial ulcers, post traumatic wounds and decubitus ulcers. The patients received either 5 mL of TCDO or saline twice daily applied by compress or directly to the wound for 21 days. […] Irrespective of wound types, wound surface decreased 2 to 4 times more quickly with TCDO treatment compared to saline. […] Adverse events were reported by 7% and 12% of patients treated with saline and TCDO respectively, the most frequent was slight pain.

diabetic foot ulcer = assay: Example 6: randomized controlled trial of TCDO as adjunct in diabetic foot ulcer; format: in vivo, human
Procedure: This randomized controlled trial was undertaken to evaluate the effect of TCDO as an adjunct to the standard treatment of diabetic foot ulcer. A total of 40 participants were randomized into 2 groups of 20. One group underwent standard therapy combined with infusions of TCDO, and 1 underwent standard therapy combined with placebo. The wound severity scores, which vary with the severity of infection and inflammation, necrotic and granulation tissues, and wound depth and area, were assessed weekly for 9 weeks.

[3] = 4 cycles of 0.5 mL TCDO/kg body weight per day
Procedure: Patients were then given 4 cycles of WF10 with the daily dose ranging from 0.5 mL/kg body weight to 1.5 mL/kg body weight.

[4] = tested on: lipopolysaccharide (LPS) from E coli 055B5; conditions: TCDO 0.2 ml/kg iv twice during the day before iv LPS; without TCDO 346; cited from earlier work
E. coli = conditions: phagocytosis assay; cited from earlier work
[5] = tested on: monocytes and large granular lymphocytes; conditions: rats, cited from earlier work
[6] = tested on: autoimmune disease with skin manifestations; conditions: cited from earlier work
wounds [7] = conditions: topical; superior to PVP-iodine treatment; cited from earlier work
wounds [8] = conditions: applied topically; cited from earlier work
HIV = conditions: cited from earlier work
[9] = tested on: T-lymphoma cell line ACH2; conditions: cited from earlier work
[10] = tested on: monocytes, macrophages and lymphocytes; conditions: in vitro; cited from earlier work
[11] = tested on: macrophages infiltrating a skin blister; conditions: human wound-healing model; cited from earlier work
[12] = tested on: granulocytes, PBMCs, LGLs, erythropoiesis; conditions: rats, cited from earlier work
hematopoietic stem cells = conditions: mice receiving sublethal doses of irradiation; cited from earlier work
[13] = tested on: radiation-induced, chemical induced and metastatic malignant and benign tumors; conditions: cited from earlier work
[14] = tested on: humoral and cellular immune responses; conditions: cited from earlier work
activated microglia = conditions: Kindy et al.; cited from earlier work
[15] = molecular target: gp120 envelope glycoprotein of HIV-1 (Human immunodeficiency virus type 1 group M subtype B, UniProt P04578); conditions: pre-incubation with TCDO; cited from earlier work
[16] = i.v. once daily 5 days, initiated 15 minutes following injury
[17] = after 9 weeks, subgroup analysis, p<0.01 vs placebo
[18] = one patient, four cycles at 0.5 mL/kg body weight
[19] = patients, two cycles at 0.5 mL/kg body weight

Tetrachlorodecaoxygen [TCDO]
Lesion volume (mm^3) ([1]; rat SCI, 1 × 10^4 units TCDO, 0.5 ml/kg IV once daily 5 days from 15 min after injury, day 42, mean ± SD): did not show a significant reduction | Percent change in Lesion volume ([1]; 1 × 10^4 units TCDO): 25% | Percent change in Lesion volume ([1]; 5 × 10^4 units TCDO): 50% | Percent change in Lesion volume ([1]; 10 × 10^4 units TCDO): 65% | Mortality (SCI rat study: mortality): no deaths | Reduction of LV or behavioral deficits ([2]; by 7 days): not effective | Decrease in lesion volume (LV) [2, 16]: 49% | Improvement of BBB score [2, 16]: 158% | Wound cleaning and formation of new tissue versus saline (non-healing wounds; 271 patients, 5 mL twice daily topically for 21 days): significantly superior to saline | Adverse events, patients reporting (non-healing wounds; topical, 21 days, most frequent was slight pain): 12% | Wound depth and wound area versus placebo (diabetic foot ulcer; after 9 weeks): not statistically significant | Wound severity score (diabetic foot ulcer; after 9 weeks, standard therapy plus TCDO infusions, n=20, p<0.05 vs placebo): 1.8±1.9 | Infection and inflammation score (diabetic foot ulcer; [17]): 0.0±0.0 | Necrotic tissue score (diabetic foot ulcer; [17]): 0.0±0.0 | Granulation tissue score (diabetic foot ulcer; after 9 weeks, subgroup analysis, p<0.05 vs placebo): 0.1±0.3 | Severe adverse events (diabetic foot ulcer; throughout the observation period): No severe adverse events were observed | Hemolysis [3]: no clinically relevant hemolysis | LD50 value of LPS after TCDO [4]: 518 mg | TCDO dose to which the concentration of maximal ingestion of E. coli corresponds (E. coli): 0.5 mL/kg-body weight | Time for monocyte level to return to normal value after discontinuation ([5]; after 90 days of dosing): 30 days | Blood levels of monocytes and large granular lymphocytes ([5]; daily for 90 days, 0.33 to 2.0 mL/kg body weight, within four days): greater than three times baseline value | Monocyte level elevated over baseline ([5]; sixteen days after discontinuation): approximately 50% | Treatment outcome, HIV associated psoriasis [6, 18]: successfully treated | Treatment outcome, eczema [6, 18]: successfully treated | Treatment outcome, pustular psoriasis ([6]; one patient, two cycles at 0.5 mL/kg body weight): successfully treated | Treatment outcome, chronic actinic dermatitis [6, 19]: successfully treated | Treatment outcome, pemphigus vulgaris [6, 19]: successfully treated | Reduction in wound surface (wounds [7]): 74.9% | Effects of cortisone on wounds (wounds [8]): reverse the effects of cortisone on wounds | Infectivity of HIV particles (HIV; HIV stocks supplemented with TCDO, concentration dependent): markedly decreased the infectivity of HIV particles | Anti-HIV properties (HIV; in vitro): displayed anti-HIV properties | Replication of HIV (HIV; persistently infected lymphocytic and monocytic cell lines, peripheral blood mononuclear cells): did not affect the replication of HIV | Delayed virus spread of HIV in presence of suboptimal concentrations of zidovudine (HIV; simultaneous addition of TCDO): could significantly be blocked | Induction of chromosomally integrated HIV-1 provirus [9]: failed to induce | Antigen presentation [10]: decrease antigen presentation | Macrophage TNF-α expression [10]: decrease macrophage tumor necrosis factor (TNF)-α expression | Macrophage-fibroblast cooperation [10]: enhance macrophage-fibroblast cooperation | Oxidative burst in monocytes [10]: stimulate an oxidative burst in monocytes | Phagocytosis [10]: increase phagocytosis | Number of macrophages infiltrating a skin blister [11]: increased the number of macrophages infiltrating a skin blister | Erythropoiesis ([12]; after total body X-irradiation): stimulated erythropoiesis | Proportion of granulocytes, PBMCs and LGLs [12]: increased the proportion of granulocytes, peripheral blood monocytes (PBMCs) and large granular lymphocytes (LGLs) | Regeneration of hematopoietic stem cells (hematopoietic stem cells): stimulated regeneration of hematopoietic stem cells | Antitumor effects [13]: displayed direct antitumor effects | Humoral immune response ([14]; Jerne plaque test): increased | Cellular immune response ([14]; footpad swelling test): increased | Proportions of T-helper and T suppressor/cytotoxic cells ([14]; spleen and thymus): altered proportions of T-helper and T suppressor/cytotoxic cells | Production of proinflammatory cytokines and superoxide anion (activated microglia): suppresses the production of proinflammatory cytokines and superoxide anion | Binding of gp120 of HIV-1 to cells [15]: is blocked
